Experimental data published in patent US4977180A, “Novel prolinal derivatives” (Ono Pharmaceutical Co., Ltd., priority 1987, dated 1990).
Where a SMILES comes first, the peptide text is derived from it. [ ]: non-standard residue; d: D form. The star is where a group is joined. ξ: configuration not given here. Cbz = O=C(OCc1ccccc1)*; ξP = O=C(O)C1CCCN1; CH2Cl = ClC*

molecular target: T1, prolyl endopeptidase (Bos taurus, UniProt Q9XTA2); assay: Prolyl endopeptidase inhibitory activity in vitro; format: biochemical; conditions: prolyl endopeptidase purified from bovine brain, pH 7.5, 37° C., substrate N-benzyloxycarbonyl-glycyl-prolyl-p-nitroanilide, 30 mins' incubation, read-out: Concentration for 50% inhibition IC50
T1 construct: prolyl endopeptidase which was purified from bovine brain; from tissue; host or cells: bovine brain
Protocol: Inhibitory activity of prolyl endopeptidase in vitro was measured by the following test system.
A mixed solution of 20 mM tris-HCl buffer (pH 7.5; 935 μl; containing 10 mM EDTA and 10 mM mercaptoethanol), a solution of a compound of the present invention in DMSO (10 μl) and a solution of prolyl endopeptidase which was purified from bovine brain (0.13 unit; prepared by the method described in J. Biochem., 94, 1179 (1983)) in tris-HCl buffer (15 μl) was preincubated for 15 mins at 37° C.
To the solution, 5 mM of N-benzyloxycarbonyl-glycyl-prolyl-p-nitroanilide (40 μl) in a mixture of 40% dioxane-60% water was added. The solution was incubated for 1 min at the same temperature.
Optical absorption (a1) at 405 nm of the solution, and optical absorption (a2) at 405 nm of the solution after 30 mins' further incubation at 37° C. were measured.
Optical absorptions (b1 and b2) of the solutions using DMSO instead of the solution of the compound of the present invention were also measured.
Inhibitory ratio was calculated by the following expression and IC50 (required concentration for 50% inhibition) was obtained (See Protein, Nucleic acid and Enzyme 25(6), 513, 1980.). [formula]

T1 sequence (Q9XTA2 whole entry): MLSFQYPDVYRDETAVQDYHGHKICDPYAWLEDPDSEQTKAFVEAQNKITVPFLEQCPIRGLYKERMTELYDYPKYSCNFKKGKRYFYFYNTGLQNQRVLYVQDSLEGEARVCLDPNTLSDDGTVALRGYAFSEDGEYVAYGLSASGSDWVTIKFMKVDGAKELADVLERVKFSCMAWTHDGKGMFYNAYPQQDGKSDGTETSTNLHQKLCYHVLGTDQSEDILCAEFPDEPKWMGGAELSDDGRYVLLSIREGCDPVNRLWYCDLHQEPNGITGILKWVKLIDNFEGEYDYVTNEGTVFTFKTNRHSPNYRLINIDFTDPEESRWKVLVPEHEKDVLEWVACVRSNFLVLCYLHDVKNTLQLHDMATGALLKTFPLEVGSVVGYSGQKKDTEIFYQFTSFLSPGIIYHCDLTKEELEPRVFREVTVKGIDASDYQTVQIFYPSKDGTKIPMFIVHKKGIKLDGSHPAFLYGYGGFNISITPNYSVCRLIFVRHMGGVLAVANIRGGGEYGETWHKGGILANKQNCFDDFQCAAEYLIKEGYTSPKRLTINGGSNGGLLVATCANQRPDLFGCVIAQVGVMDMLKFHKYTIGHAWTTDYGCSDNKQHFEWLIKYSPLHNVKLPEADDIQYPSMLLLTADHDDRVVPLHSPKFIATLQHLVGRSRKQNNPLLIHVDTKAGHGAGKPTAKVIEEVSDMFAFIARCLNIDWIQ

Row | SMILES | IC50 [nM]
1 | O=C[C@@H]1CCCN1C(=O)CCC(=O)CCCc1ccccc1[N+](=O)[O-] [1 (j), N-[7-(2-nitrophenyl)-4-oxoheptanoyl]-L-prolinal] | 32
2 | O=C[C@@H]1CCCN1C(=O)[C@@H]1CCCC[C@H]1C(=O)CCc1ccccc1 (mixture of isomers) [1 (c), N-[trans-2-(3-phenylpropanoyl)cyclohexanecarbonyl]-L-prolinal] | 24
3 | COc1ccc(CCC(=O)CCC(=O)N2CCC[C@H]2C=O)cc1 [1 (g), N-[6-(4-methoxyphenyl)-4-oxohexanoyl]-L-prolinal] | 84
4 | Cc1ccc(CCC(=O)CCC(=O)N2CCC[C@H]2C=O)cc1 [1 (i), N-[6-(4-methylphenyl)-4-oxohexanoyl]-L-prolinal] | 11
5 | O=C[C@@H]1CCCN1C(=O)CCC(=O)CCc1ccccc1 [1 (a), N-(6-phenyl-4-oxohexanoyl) L-prolinal] | 120
6 | O=C[C@@H]1CCCN1C(=O)[C@@H]1CCC[C@H]1C(=O)CCc1ccccc1 (mixture of isomers) [1 (b), N-[trans-2-(3-phenylpropanoyl)cyclopentanecarbonyl]-L-prolinal] | 14
7 | O=C[C@@H]1CCCN1C(=O)CCC(=O)CCc1ccc2ccccc2c1 [1 (l), N-[6-(2-naphthyl)-4-oxohexanoyl]-L-prolinal] | 39
8 | O=C[C@@H]1CCCN1C(=O)CCC(=O)CCc1cccc(Cl)c1 [1 (e), N-[6-(3-chlorophenyl)-4-oxohexanoyl]-L-prolinal] | 50
9 | CC(C)C(C(=O)CCCCc1ccccc1)C(=O)N1CCC[C@H]1C=O (stereo partly drawn) [1 (d), N-(2RS-isopropyl-3-oxo-7-phenylheptanoyl)-L-prolinal] | 150
10 | O=C[C@@H]1CCCN1C(=O)CCC(=O)CCCCc1ccccc1 [1 (f), N-(4-oxo-8-phenyloctanoyl)-L-prolinal] | 62
11 | O=C[C@@H]1CCCN1C(=O)CCC(=O)CCc1ccc(C(F)(F)F)cc1 [1 (m), N-[4-oxo-6-(p-trifluoro-methylphenyl)hexanoyl]-L-prolinal] | 15
12 | O=C[C@@H]1CCCN1C(=O)CCC(=O)CCc1cccc2ccccc12 [1 (k), N-[6-(1-naphthyl)-4-oxohexanoyl]-L-prolinal] | 18
13 | O=C[C@@H]1CCCN1C(=O)CCC(=O)CCc1ccc(Cl)cc1 [1 (h), N-[6-(4-chlorophenyl)-4-oxohexanoyl]-L-prolinal] | 29
14 | O=C[C@@H]1CCCN1C(=O)CCC(=O)CCCc1ccccc1 [Example 1, N-(7-phenyl-4-oxoheptanoyl)-L-prolinal] | 27

test system: prolyl endopeptidase; assay: not given; conditions: in words; J. Neurochem., 41, 69 (1983); cited from earlier work

Row | SMILES | inhibits prolyl endopeptidase
15 | O=C(NCC(=O)N1CCC[C@H]1C(=O)CCl)OCc1ccccc1 [N-benzyloxycarbonyl-glycyl-L-prolyl-chloromethane] (Cbz-Gly-Pro-CH2Cl) | strongly inhibits prolyl endopeptidase
16 | O=CC1CCCN1C(=O)[C@@H]1CCCN1C(=O)OCc1ccccc1 (stereo partly drawn) [N-benzyloxycarbonyl-L-propyl-prolinal] (Cbz-Pro-[ξP]-aldehyde) | strongly inhibits prolyl endopeptidase
